Results: patent publication US20050228046A1, “Alkylamine as an antimicrobial agent in ophthalmic compositions” (ADVANCED MEDICAL OPTICS, INC., priority 2004, published 2005)

How the values were obtained:
[1] = test system: five FDA/ISO specified test organisms; assay: Antimicrobial activity against the five-microbial panel, FDA/ISO disinfection criteria; format: cell-based; details: for stand-alone criteria: 10 ppm MA
Procedure: The following is the procedure by which various antimicrobial agents and solutions are tested for their ability to reduce microbial loads over short periods of time, typically 24 hours and less. The procedure is a basic microbiology challenge test, which involves the inoculation of test product aliquots with a known number of viable cells of several test organisms, and assay for the survivors at various time intervals. The results are used to calculate log drops at soak times and construct kill-curves (graphs of survivors versus time) if desired. Candida albicans, ATCC 10231, is one of five organisms specified per FDA and ISO/CLI tests for the testing of contact lens disinfectants (FDA Premarket Notification (510k) Guidance Document for Contact Lens Care Products, Appendix B, Apr. 1, 1997 and ISO/FDIS 14729: Ophthalmic optics-Contact lens care products-Microbiological requirements and test methods for products and regimens for hygienic management of contact lenses, January 2001). Contact lens disinfectants are also known as contact lens multi-purpose solutions when they are used for rinsing, cleaning, disinfection, storage and rewetting contact lenses. The five FDA/ISO specified test organisms are listed below: • Serratia marcescens, ATCC 13880 • Staphylococcus aureus, ATCC 6538 • Pseudomonas aeruginosa, ATCC 9027 • Candida albicans, ATCC 10231 • Fusarium solani, ATCC 36031 Candida albicans is often the most resistant of the five organisms to commonly used cationic antimicrobial agents in contact lens multi-purpose solutions. Thus, achievement of adequate antimicrobial activity against Candida is often the most difficult task to pass a particular disinfection efficacy standard. FDA and ISO guidelines specify two disinfection efficacy standards, indicated in the table below: Stand Alone Disinfectant (Primary) Criteria: [table] The specific test procedure for testing antimicrobial activity against the five FDA/ISO specified test organisms is as follows (C. albicans is provided as a specific example): Test samples are sterile-filtered through a 0.22 micron sterile filter into sterile plastic high density polyethylene bottles or plastic flasks. A 10-mL aliquot of test sample is aseptically transferred into a sterile polystyrene plastic test tube. Sterile saline (0.90 w/v % NaCl) with 0.05 w/v % Polysorbate 80 (SS+TWEEN) is transferred into a separate control tube. All samples and control are stored at 20-25° C. throughout the duration of the test.

[2] = Contact lens uptake: content left in solution after shaking with lenses; format: physicochemical; details: Myristylamine with TPGS 20 fold
Procedure: The results in Table 9A show the remaining quaternary ammonium and tertiary amine content left in solution after a 15 ml-solution-2 lenses closed system has been shaken for 6 days at room temperature. […] The control which was run for this experiment, which includes the remaining ingredients in the solutions referenced in Table 9A are listed in Table 9B. As one of ordinary skill in the art would realize, the less quaternary ammonium or tertiary amine content remaining in solution after the shaking period, the higher the absorption by the lenses.

In the case of `CCCCCCCCCCCCCCN` [Myristylamine], the stand-alone criteria ([1]; Tween 80:MA ratio 7.4) is reported as “fail to meet the stand-alone criteria”, the stand-alone criteria ([1]; Tween 80:MA ratio 7.4, with addition of Polyquaternium-1) is reported as “can still be a stand-alone disinfectant product” and the anti-bacteria activity ([1]; TPGS:MA ratio of 40) is reported as “lost considerably”. For the same molecule, the “anti-fungal activity (Ca and Fs)” value ([1]; TPGS:MA ratio of up to 60) was “still seen”, the “remaining content left in solution, Acuvue” value ([2]; 15 ml solution, 2 Acuvue lenses, closed system shaken 6 days at room temperature) was 34.1 ppm and the “remaining content left in solution, Purevision” value ([2]; 15 ml solution, 2 Purevision lenses, closed system shaken 6 days at room temperature) was 13.0 ppm. The “remaining content left in solution, Without Lens” value ([2]; 15 ml system without lenses, shaken 6 days at room temperature) was 37.9 ppm.
